Measured values as given in patent publication US20230247989A1, “Synergistic Biocide Composition With a Polyglycerol Ester” (Arch UK Biocides Ltd, priority 2020, published 2023).

System: Pseudomonas aeruginosa ATCC 15442
Experiment: Suspension test for synergy: log reduction of Pseudomonas aeruginosa after 5 min contact
Type: cell-based
Conditions: for Log Reduction: 5 minutes contact
Procedure: The target organism Pseudomonas aeruginosa ATCC 15442 was taken from freezer stocks and grown for 24 hours on tryptone soy agar (TSA) at 37° C. A second subculture was produced from the first and grown with the same conditions. A test suspension was then created by adding loopfuls of organism to tryptone buffered saline and adjusting the cell concentration to 1×10^8 and 5×10^8 CFU/ml using an internally established calibration curve spectrophotometer at a wavelength of 600 nm. To establish the precise CFU/ml a 1 ml aliquot was then taken from the test suspension and serially diluted down to 10^−6 and 10^−7, 1 ml of each dilution was then plated in duplicate using the pour plate method on to TSA. The plates were then incubated for 24 hours at 37° C. and enumerated.
For each biocide tested a series of 3 samples were prepared in sterile distilled water,
Test sample 1—Biocide alone (to measure basic efficacy of the biocide)
Test sample 2—Biocide in combination with polyglyceryl-10 caprylate/caprate (to measure the efficacy of the combination of biocide and polyglycerol ester)
Control—A control sample of polyglyceryl-10 caprylate/caprate was prepared in deionized water to measure the efficacy of polyglycerol ester alone.
Each test sample was prepared at a concentration 10% higher than that of the target concentration to account for the dilution effect from the addition of the test organism suspension during the test procedure.
A test mixture was prepared by adding a 0.1 ml aliquot of test organism suspension to a tube followed by 0.9 ml of test sample (prepared as above). The combination was then mixed and a timer started immediately.
Upon achieving the specified contact time the test mixture was deactivated by adding a 0.1 ml aliquot of the test mixture to 0.9 ml of neutralizing broth and the whole solution mixed. The solution was left for 5 minutes to ensure the action of the biocide was effectively neutralized.
To quantify the surviving number of organisms in the neutralized test mixture, 4×0.025 ml aliquots were taken and spot plated onto the surface of dried TSA. The plates were then incubated for 24 hours at 37° C.
For spot plating, colonies from the incubated plates were enumerated using the lower count limit of <1 and the upper count limit of >150. […] For the upper limit, if 156 colonies were counted on a plate, >150 would be recorded and 150 would be used for the calculation.
Enumeration and Calculation of T (Test Mixture) • First, the mean average of cfu per 0.025 ml spots was established using the below calculation,
Log Reduction Calculations (N0−T) • Before calculating the log reduction both N0 and T were converted into a logarithm base 10 value. For example;
The test procedure outlined above was used to test for synergy between polyglyceryl-10 caprylate/caprate (PG1000) and the various biocidal agents listed in Table 1. Varying concentrations were prepared and were tested at 5 mins for the presence of Pseudomonas aeruginosa.

## N=C(NCCCCCCNC(=N)NC(=N)Nc1ccc(Cl)cc1)NC(=N)Nc1ccc(Cl)cc1 [Chlorhexidine, reference compound]
Biocide alone 65 ppm
  Log Reduction: 3.44

## CCCCCCCCCCCCN(C)C.Cl [Dodecyledimethylammonuim chloride]
Biocide alone 20 ppm
  Log Reduction: 3.88

## CC(C)O [Isopropanol]
Biocide alone 16%
  Log Reduction: <2.85

## CCCCCCCCCCCCN(CCCN)CCCN [N-(3-aminopropyl)-N-dodecylpropane-1,3-diamine]
Biocide alone 50 ppm
  Log Reduction: 2.98

## polyglyceryl-10 caprylate/caprate [PGE Control]
PGE alone 100 ppm in deionized water
  Log Reduction: <2.92
At 100 ppm, 5 mins
  activity (in words): little or no activity
